Laboratory results reported in patent US4963542A, “Cephalosporin derivatives” (Takeda Chemical Industries, Ltd., priority 1976, dated 1990).

Tests used:
Klebsiella pneumoniae DT = assay: Minimal inhibitory concentration, agar serial dilution; assay type: cell-based; conditions: TSA, inoculum 10^7 /ml
Excerpt: (§1) (a) Minimal inhibitory concentrations (Table 1 and 2)
(§2) Method: Agar serial dilution

[1] = test system: Escherichia coli NIHJ JC-2; assay: as above; assay type: cell-based; conditions: TSA, inoculum 10^7 /ml
Excerpt: as §1, §2

Proteus rettgeri GN4733 = assay: as above; assay type: cell-based; conditions: TSA, inoculum 10^7 /ml
Excerpt: as §1, §2

Proteus vulgaris GN4413 = assay: as above; assay type: cell-based; conditions: TSA, inoculum 10^7 /ml
Excerpt: as §1, §2

[2] = test system: Serratia marcescens IFO 12648; assay: as above; assay type: cell-based; conditions: TSA, inoculum 10^7 /ml
Excerpt: as §1, §2

[3] = test system: Klebsiella pneumoniae GN-3835; assay: as above; assay type: cell-based; conditions: TSA, inoculum 10^7 /ml
Excerpt: as §1, §2

Serratia marcescens TN24 = assay: as above; assay type: cell-based; conditions: TSA, inoculum 10^7 /ml
Excerpt: as §1, §2

[4] = test system: Citrobacter freundii GN1706; assay: as above; assay type: cell-based; conditions: TSA, inoculum 10^7 /ml
Excerpt: as §1, §2

Escherichia coli 0-111 [5] = assay: as above; assay type: cell-based; conditions: TSA, inoculum 10^7 /ml
Excerpt: as §1, §2

[6] = test system: Staphylococcus aureus 209P; assay: as above; assay type: cell-based; conditions: TSA, inoculum 10^7 /ml
Excerpt: as §1, §2

[7] = test system: Proteus vulgaris IFO 3988; assay: as above; assay type: cell-based; conditions: TSA, inoculum 10^7 /ml
Excerpt: as §1, §2

Proteus rettgeri TN338 = assay: as above; assay type: cell-based; conditions: TSA, inoculum 10^7 /ml
Excerpt: as §1, §2

Proteus morganii IFO3168 = assay: as above; assay type: cell-based; conditions: TSA, inoculum 10^7 /ml
Excerpt: as §1, §2

Escherichia coli T-7 = assay: as above; assay type: cell-based; conditions: TSA, inoculum 10^7 /ml
Excerpt: as §1, §2

Proteus mirabilis GN4359 = assay: as above; assay type: cell-based; conditions: TSA, inoculum 10^7 /ml
Excerpt: as §1, §2

[8] = test system: Citrobacter freundii GN99; assay: as above; assay type: cell-based; conditions: TSA, inoculum 10^7 /ml
Excerpt: as §1, §2

[9] = test system: Staphylococcus aureus 1840; assay: as above; assay type: cell-based; conditions: TSA, inoculum 10^7 /ml
Excerpt: as §1, §2

[10] = test system: Enterobacter cloacae TN1282; assay: as above; assay type: cell-based; conditions: TSA, inoculum 10^7 /ml
Excerpt: as §1, §2

Escherichia coli 0-111 [11] = assay: Therapeutic effects on infected mice; assay type: in vivo, Male mouse, ICR/SLC; conditions: Escherichia coli, 0111, sc, 168 h, s.c. single dose immediately after intraperitoneal infection, 7 days observation
Procedure: The therapeutic efficacies of several representative compounds [I] of this invention and of cephaloridine on infected mice are also set forth in the tables.
(b) Therapeutic effects on infected mice (Table 3 and Table 4)
Test animal: Male mouse, ICR/SLC
A group of five animals was employed per drug.
Route of infection: Intraperitoneal
Infectious bacteria: Escherichia coli 0-111
Period of observation: 7 days
Method of administration: Test compound (1 mg, 10 mg, 100 mg or 200 mg) was dissolved in sterile saline solution (100 ml) and 0.2 ml of the solution was administered subcutaneously as a single dose immediately after infection. Two fold dilutions of each solution were administered to five groups of 5 mice each.

Compound: Cc1nnc(SCC2=C(C(=O)[O-])N3C(=O)C(NC(=O)Cn4cnnn4)[C@H]3SC2)s1.[Na+] (stereo partly drawn) [Cefazolin, sodium 7-(1H-tetrazol-1-yl)acetamido-3-(2-methyl-1,3,4-thiadiazol-5-yl)thiomethyl-3-cephem-4-carboxylate, reference compound]
- Minimal inhibitory concentration (MIC) (Klebsiella pneumoniae DT): 1.56
- Minimal inhibitory concentration (MIC) [1]: 1.56
- Minimal inhibitory concentration (MIC) (Proteus rettgeri GN4733): 100
- Minimal inhibitory concentration (MIC) (Proteus vulgaris GN4413): > 100
- Minimal inhibitory concentration (MIC) [2]: > 100
- Minimal inhibitory concentration (MIC) [3]: 6.25
- Minimal inhibitory concentration (MIC) (Serratia marcescens TN24): > 100
- Minimal inhibitory concentration (MIC) [4]: > 100
- Minimal inhibitory concentration (MIC) (Escherichia coli 0-111 [5]): 1.56
- Minimal inhibitory concentration (MIC) [6]: 0.39
- Minimal inhibitory concentration (MIC) [7]: 3.13
- Minimal inhibitory concentration (MIC) (Proteus rettgeri TN338): ≤ 0.2
- Minimal inhibitory concentration (MIC) (Proteus morganii IFO3168): 100
- Minimal inhibitory concentration (MIC) (Escherichia coli T-7): 50
- Minimal inhibitory concentration (MIC) (Proteus mirabilis GN4359): 6.25
- Minimal inhibitory concentration (MIC) [8]: 12.5
- Minimal inhibitory concentration (MIC) [9]: 1.56

Compound: O=C(Cc1cccs1)N[C@@H]1C(=O)N2C(C(=O)[O-])=C(C[n+]3ccccc3)CS[C@H]12 [Cephaloridine, 7-(2-thienylacetamido)-3-(1-pyridyl)methyl-3-cephem-4-carboxylic acid betaine, reference compound]
- Minimal inhibitory concentration (MIC) (Klebsiella pneumoniae DT): 1.56
- Minimal inhibitory concentration (MIC) [1]: 3.13
- Minimal inhibitory concentration (MIC) (Proteus rettgeri GN4733): > 100
- Minimal inhibitory concentration (MIC) (Proteus vulgaris GN4413): > 100
- Minimal inhibitory concentration (MIC) [2]: > 100
- Minimal inhibitory concentration (MIC) [3]: 12.5
- Minimal inhibitory concentration (MIC) (Serratia marcescens TN24): > 100
- Minimal inhibitory concentration (MIC) [4]: > 100
- Minimal inhibitory concentration (MIC) (Escherichia coli 0-111 [5]): 1.56
- Minimal inhibitory concentration (MIC) [6]: 0.05
- Minimal inhibitory concentration (MIC) [7]: 6.25
- Minimal inhibitory concentration (MIC) (Proteus rettgeri TN338): 1.56
- Minimal inhibitory concentration (MIC) (Proteus morganii IFO3168): > 100
- Minimal inhibitory concentration (MIC) (Escherichia coli T-7): > 100
- Minimal inhibitory concentration (MIC) (Proteus mirabilis GN4359): 6.25
- Minimal inhibitory concentration (MIC) [8]: 50
- Minimal inhibitory concentration (MIC) [9]: 0.39
- Minimal inhibitory concentration (MIC) [10]: > 100
- ED50 (Escherichia coli 0-111 [11]; Table 3): 2.6 mg/kg
- ED50 (Escherichia coli 0-111 [11]; Table 4): 1.81 mg/kg

Compound: CC(=O)OCC1=C(C(=O)[O-])N2C(=O)C(NC(=O)Cc3cccs3)[C@H]2SC1.[Na+] (stereo partly drawn) [Cephalothin, sodium 7-(2-thienylacetamido)-3-acetoxymethyl-3-cephem-4-carboxylate, reference compound]
- Minimal inhibitory concentration (MIC) (Klebsiella pneumoniae DT): 1.56
- Minimal inhibitory concentration (MIC) [1]: 12.5
- Minimal inhibitory concentration (MIC) (Proteus rettgeri GN4733): > 100
- Minimal inhibitory concentration (MIC) (Proteus vulgaris GN4413): > 100
- Minimal inhibitory concentration (MIC) [2]: > 100
- Minimal inhibitory concentration (MIC) [3]: 12.5
- Minimal inhibitory concentration (MIC) (Serratia marcescens TN24): > 100
- Minimal inhibitory concentration (MIC) [4]: > 100
- Minimal inhibitory concentration (MIC) (Escherichia coli 0-111 [5]): 3.13
- Minimal inhibitory concentration (MIC) [6]: 0.20
- Minimal inhibitory concentration (MIC) [7]: 1.56
- Minimal inhibitory concentration (MIC) (Proteus rettgeri TN338): 1.56
- Minimal inhibitory concentration (MIC) (Proteus morganii IFO3168): > 100
- Minimal inhibitory concentration (MIC) (Escherichia coli T-7): 100
- Minimal inhibitory concentration (MIC) (Proteus mirabilis GN4359): 3.13
- Minimal inhibitory concentration (MIC) [8]: 25
- Minimal inhibitory concentration (MIC) [9]: 0.39
- Minimal inhibitory concentration (MIC) [10]: > 100

Compound: N=c1[nH]c(/C(=N/O)C(=O)NC2C(=O)N3C(C(=O)O)=C(CSc4cnn[nH]4)CSC23)cs1 (stereo not drawn) [Example 13, sodium 7-[2-(2-imino-4-thiazolin-4-yl)-2-hydroxyimino-acetamido]-3-(1,2,3-triazol-5-yl)thiomethyl-3-cephem-4-carboxylate (syn-isomer)]
- Minimal inhibitory concentration (MIC) (Klebsiella pneumoniae DT): 0.05
- Minimal inhibitory concentration (MIC) [1]: 0.10
- Minimal inhibitory concentration (MIC) (Proteus rettgeri GN4733): 0.20
- Minimal inhibitory concentration (MIC) (Proteus vulgaris GN4413): 50
- Minimal inhibitory concentration (MIC) [2]: 12.5
- Minimal inhibitory concentration (MIC) [3]: 0.20
- Minimal inhibitory concentration (MIC) (Serratia marcescens TN24): 1.56
- Minimal inhibitory concentration (MIC) [4]: 0.78
- Minimal inhibitory concentration (MIC) (Escherichia coli 0-111 [5]): 0.05
- Minimal inhibitory concentration (MIC) [6]: 0.78
- Minimal inhibitory concentration (MIC) [7]: 0.10
- Minimal inhibitory concentration (MIC) (Proteus rettgeri TN338): ≤ 0.012
- Minimal inhibitory concentration (MIC) (Proteus morganii IFO3168): 0.20
- Minimal inhibitory concentration (MIC) (Escherichia coli T-7): 0.78
- Minimal inhibitory concentration (MIC) (Proteus mirabilis GN4359): 0.10
- Minimal inhibitory concentration (MIC) [8]: 0.39
- Minimal inhibitory concentration (MIC) [9]: 0.78
- Minimal inhibitory concentration (MIC) [10]: 25

Compound: Cc1nsc(SCC2=C(C(=O)O)N3C(=O)C(NC(=O)/C(=N\O)c4csc(=N)[nH]4)C3SC2)n1 (stereo not drawn) [Example 14, sodium 7-[2-(2-imino-4-thiazoline-4-yl)-2-hydroxyimino-acetamido]-3-(3-methyl-1,2,4-thiadiazol-5-yl)thiomethyl-3-cephem-4-carboxylate (syn-isomer)]
- Minimal inhibitory concentration (MIC) (Klebsiella pneumoniae DT): 0.20
- Minimal inhibitory concentration (MIC) [1]: 0.39
- Minimal inhibitory concentration (MIC) (Proteus rettgeri GN4733): 0.39
- Minimal inhibitory concentration (MIC) (Proteus vulgaris GN4413): 1.56
- Minimal inhibitory concentration (MIC) [2]: 6.25
- Minimal inhibitory concentration (MIC) [3]: 0.78
- Minimal inhibitory concentration (MIC) (Serratia marcescens TN24): 0.78
- Minimal inhibitory concentration (MIC) [4]: 0.78
- Minimal inhibitory concentration (MIC) (Escherichia coli 0-111 [5]): 0.20
- Minimal inhibitory concentration (MIC) [6]: 0.39
- Minimal inhibitory concentration (MIC) [7]: 0.10
- Minimal inhibitory concentration (MIC) (Proteus rettgeri TN338): 0.024
- Minimal inhibitory concentration (MIC) (Proteus morganii IFO3168): 0.20
- Minimal inhibitory concentration (MIC) (Proteus mirabilis GN4359): 0.39
- Minimal inhibitory concentration (MIC) [8]: 0.39
- Minimal inhibitory concentration (MIC) [9]: 0.78
- Minimal inhibitory concentration (MIC) [10]: 6.25

Compound: N=c1[nH]c(C(=NO)C(=O)NC2C(=O)N3C(C(=O)[O-])=C(C[n+]4ccc(C(N)=O)cc4)CSC23)cs1 (stereo not drawn) [Example 17, 7-[2-(2-imino-4-thiazolin-4-yl)-2-hydroxyimino-acetamido]-3-(4-carbamoylpyridiniummethyl)-3-cephem-4-carboxylate (syn-isomer)]
- Minimal inhibitory concentration (MIC) (Klebsiella pneumoniae DT): 0.20
- Minimal inhibitory concentration (MIC) [1]: 0.39
- Minimal inhibitory concentration (MIC) (Proteus rettgeri GN4733): 0.20
- Minimal inhibitory concentration (MIC) (Proteus vulgaris GN4413): 3.13
- Minimal inhibitory concentration (MIC) [2]: 1.56
- Minimal inhibitory concentration (MIC) [3]: 1.56
- Minimal inhibitory concentration (MIC) (Serratia marcescens TN24): 0.78
- Minimal inhibitory concentration (MIC) [4]: 0.78
- Minimal inhibitory concentration (MIC) (Escherichia coli 0-111 [5]): 0.20
- Minimal inhibitory concentration (MIC) [6]: 0.39
- Minimal inhibitory concentration (MIC) [7]: 0.39
- Minimal inhibitory concentration (MIC) (Proteus rettgeri TN338): 0.05
- Minimal inhibitory concentration (MIC) (Proteus morganii IFO3168): 0.39
- Minimal inhibitory concentration (MIC) (Escherichia coli T-7): 25
- Minimal inhibitory concentration (MIC) (Proteus mirabilis GN4359): 0.39
- Minimal inhibitory concentration (MIC) [8]: 0.20
- Minimal inhibitory concentration (MIC) [9]: 0.39
- Minimal inhibitory concentration (MIC) [10]: 12.5

Compound: N=c1[nH]c(/C(=N/O)C(=O)NC2C(=O)N3C(C(=O)O)=C(COC(N)=O)CSC23)cs1 (stereo not drawn) [Example 26, sodium 7-[2-(2-imino-4-thiazolin-4-yl)-2-hydroxyimino-acetamido]-3-carbamoyloxymethyl-3-cephem-4-carboxylate (syn-isomer)]
- Minimal inhibitory concentration (MIC) (Klebsiella pneumoniae DT): 0.024
- Minimal inhibitory concentration (MIC) [1]: 0.05
- Minimal inhibitory concentration (MIC) (Proteus rettgeri GN4733): 0.024
- Minimal inhibitory concentration (MIC) (Proteus vulgaris GN4413): 50
- Minimal inhibitory concentration (MIC) [2]: 12.5
- Minimal inhibitory concentration (MIC) [3]: 0.05
- Minimal inhibitory concentration (MIC) (Serratia marcescens TN24): 1.56
- Minimal inhibitory concentration (MIC) [4]: 0.10
- Minimal inhibitory concentration (MIC) (Escherichia coli 0-111 [5]): 0.024
- Minimal inhibitory concentration (MIC) [6]: 0.78
- Minimal inhibitory concentration (MIC) [7]: 0.10
- Minimal inhibitory concentration (MIC) (Proteus rettgeri TN338): ≤ 0.012
- Minimal inhibitory concentration (MIC) (Proteus morganii IFO3168): 0.39
- Minimal inhibitory concentration (MIC) (Escherichia coli T-7): 0.39
- Minimal inhibitory concentration (MIC) (Proteus mirabilis GN4359): 0.05
- Minimal inhibitory concentration (MIC) [8]: 0.05
- Minimal inhibitory concentration (MIC) [9]: 0.78
- Minimal inhibitory concentration (MIC) [10]: 12.5
